From patent US20250230138A1, “COMPOUNDS HAVING A T-STRUCTURE FORMED BY AT LEAST FOUR CYCLES FOR USE IN THE TREATMENT OF CANCER AND OTHER INDICATIONS” (TheRas, Inc., priority 2022, published 2025)
Read-outs that look alike come from different tables or passages of the source.

Tests used:
[1] = biological target: Cys242 in human PIK3CA (157-299) (Homo sapiens (Human), UniProt P42336); experiment: Covalent modification assay using MALDI-TOF MS; format: biochemical; conditions: 4 h reaction time point
In short: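 Covalent adduct formation was read by linear-mode MALDI-TOF with sinapinic acid matrix, reported as modified-protein peak height divided by total protein peak heights. Reactions held PIK3CA (157-299) at 1 or 3.33 μM in HEPES/NaCl/MgCl2 buffer, pH 7.3, sampled after 15 min to 4 h at room temperature.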

pAKT in BT474 cells = experiment: Cell-based pAKT HTRF assay in BT474 cells; conditions: BT474 cells, 4 hr incubation, read-out: pAKT inhibition IC50 in BT474 cells
In short: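 pAKT was measured by HTRF after a 4 hr compound exposure in BT474 cells (DMEM, 10% FBS, 0.25% DMSO), using 9 concentrations from 3 μM in 3-fold steps. Cell lysates were incubated with the Eu cryptate/d2 antibody pair at room temperature for 4 to 24 h. The plate was then read at 320 nm excitation and 615 nm emission.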

[2] = 3.33 μM protein target, 1:7.5 protein to compound ratio (compounds 1-852)
[3] = 1 μM protein target, 1:5 protein to compound ratio (compounds 853-1279)
[4] = Homo sapiens, BT-474, Compounds 10-999

Cys242 in human PIK3CA (157-299), sequence (P42336 157-299): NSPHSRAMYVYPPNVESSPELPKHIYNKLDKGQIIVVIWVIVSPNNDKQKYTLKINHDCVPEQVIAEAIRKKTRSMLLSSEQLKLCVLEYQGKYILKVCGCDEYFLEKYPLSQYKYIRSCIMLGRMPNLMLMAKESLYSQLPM

Row | IC50 (pAKT in BT474 cells; Compounds 10-999) [µM] | IC50 (pAKT in BT474 cells; Compounds 1000-1279) [µM] | IC50 (pAKT in BT474 cells; [4]) [µM] | Structure (SMILES) | % of modification [1, 2] | % of modification [1, 3]
1 | < 0.1 | – | – | C=CC(=O)N1CC(n2cc(-c3nc(-c4ccc5c(c4)CCN(C)C5)c4ccsc4c3-c3ccc(F)cc3OCCOC)cn2)C1 [Compound 78] | A (percent of modification of PIK3CA protein ≥75%) | –
2 | – | < 0.1 | – | C=CC(=O)N1CCc2cc(-c3nc(-c4ccc5nn(C)cc5c4)c4ccsc4c3-c3c(F)cc(F)cc3OCCO)nn2CC1 [Compound 1200] | – | A (percent of modification of PIK3CA protein ≥75%)
3 | 0.1 to 1 | – | – | C=CC(=O)N1CCc2nc(-c3nc(N4CCN(S(C)(=O)=O)CC4)c4ccsc4c3-c3ccc(F)cc3OCCOC)sc2C1 [Compound 167] | B (50%<percent of modification <75%) | –
4 | – | < 0.1 | – | C=CC(=O)N1CCn2nc(-c3nc(-c4ccc5c(c4)CCC5N(C)C)c4ccsc4c3-c3c(F)cc(F)cc3OCCOC)cc2C1C (centres unmarked) [Compound 1155] | – | A (percent of modification of PIK3CA protein ≥75%)
5 | < 0.1 | – | – | C=CC(=O)N1CCn2nc(-c3nc(C4CCN(C(C)C)CC4)c4ccsc4c3-c3ccc(F)cc3OC(C)C)cc2C1 [Compound 240] | A (percent of modification of PIK3CA protein ≥75%) | –
6 | – | < 0.1 | – | C=CC(=O)N1CCn2nc(-c3nc(-c4ccc(CC(=O)NC)cc4)c4ccsc4c3-c3c(F)cc(F)cc3OC)cc2C1C (centres unmarked) [Compound 1188] | – | A (percent of modification of PIK3CA protein ≥75%)
7 | < 0.1 | – | – | C=CC(=O)N1CC[C@H](n2cc(-c3nc(-c4ccc5c(c4)CCC(O)C5)c4ccsc4c3-c3ccc(F)cc3OCCOC)cn2)C1 (some centres unmarked) [Compound 64] | A (percent of modification of PIK3CA protein ≥75%) | –
8 | < 0.1 | – | – | C=CC(=O)N1CCn2nc(-c3nc(-c4ccc5c(c4)CNC5=O)c4ccsc4c3-c3c(F)cc(F)cc3OCCOC)cc2[C@H]1C [Compound 520] | A (percent of modification of PIK3CA protein ≥75%) | –
9 | 0.1 to 1 | – | – | C=CC(=O)N1Cc2cc(-c3nc(-c4ccc5ncn(C)c5c4)c4ccsc4c3-c3c(F)cc(F)cc3O[C@H](C)CO)nn2C[C@H]1C [Compound 611] | D (percent of modification <25%) | –
10 | < 0.1 | – | – | C=CC(=O)N1CCc2nc(-c3nc(-c4ccc5c(c4)CNC5=O)c4ccsc4c3-c3c(F)cc(F)cc3OC(C)C)sc2C1 (single isomer, unassigned) [Compound 414] | A (percent of modification of PIK3CA protein ≥75%) | –
11 | – | < 0.1 | – | C=CC(=O)N1CCn2nc(-c3nc(-c4ccc5c(cnn5C)c4)c4ccsc4c3-c3c(F)cc(F)cc3OC3CC(F)(F)C3)cc2C1C (centres unmarked) [Compound 1240] | – | A (percent of modification of PIK3CA protein ≥75%)
12 | – | – | < 0.1 | C=CC(=O)N1CCn2nc(-c3nc(-c4ccc(=O)n(C)c4)c4ccsc4c3-c3ccc(F)cc3OCCOC)cc2C1 [Compound 195, 5-[7-[4-fluoro-2-(2-methoxyethoxy)phenyl]-6-(5-prop-2-enoyl-6,7-dihydro-4H-pyrazolo[1,5-a]pyrazin-2-yl)thieno[3,2-c]pyridin-4-yl]-1-methyl-pyridin-2-one] | A (percent of modification of PIK3CA protein ≥75%) | –
13 | < 0.1 | – | – | C=CC(=O)N1CCc2nc(-c3nc(-c4ccc5c(c4)CCNC5)c4ccsc4c3-c3ccc(F)cc3OC(C)C)sc2C1 [Compound 155] | A (percent of modification of PIK3CA protein ≥75%) | –
14 | < 0.1 | – | – | C=CC(=O)N1CCn2nc(-c3nc(-c4ccc5c(c4)ncn5C)c4ccsc4c3-c3c(F)cc(F)cc3OCCO)cc2[C@@H]1C [Compound 664, 1-((S)-2-((S)-7-(2,4-difluoro-6-(2-hydroxyethoxy)phenyl)-4-(1-methyl-1H-benzo[d]imidazol-5-yl)thieno[3,2-c]pyridin-6-yl)-4-methyl-6,7-dihydropyrazolo[1,5-a]pyrazin-5(4H)-yl)prop-2-en-1-one] | A (percent of modification of PIK3CA protein ≥75%) | –
15 | 0.1 to 1 | – | – | C=C(F)C(=O)N1CCn2nc(-c3nc(-c4ccc(=O)[nH]c4)c4ccsc4c3-c3ccc(F)cc3OC(C)C)cc2C1 [Compound 307] | A (percent of modification of PIK3CA protein ≥75%) | –
16 | 0.1 to 1 | – | – | C=CC(=O)N1Cc2cc(-c3nc(-c4ccc5c(c4)CN(C)C5=O)c4ccsc4c3-c3c(F)cc(F)cc3OC)nn2C(C)C1 (centres unmarked) [Compound 911] | – | B (50%<percent of modification <75%)
17 | < 0.1 | – | – | C=CC(=O)N1CCc2ncc(-c3nc(-c4cnc(N)nc4)c4ccsc4c3-c3c(F)cc(F)cc3OC(C)C)cc2C1 [Compound 372] | A (percent of modification of PIK3CA protein ≥75%) | –

Row | IC50 (pAKT in BT474 cells; Compounds 10-999) [µM] | IC50 (pAKT in BT474 cells; Compounds 1000-1279) [µM] | IC50 (pAKT in BT474 cells; [4]) [µM] | Structure (SMILES) | % of modification [1, 2] | % of modification [1, 3]
18 | < 0.1 | – | – | C=CC(=O)N1CCc2ncc(-c3nc(-c4ccc(=O)n(C)c4)c4ccsc4c3-c3c(F)cc(F)cc3OC(C)C)cc2C1 [Compound 330] | A (percent of modification of PIK3CA protein ≥75%) | –
19 | < 0.1 | – | – | C=CC(=O)N1CCc2nc(-c3nc(-c4ccc(=O)n(C)c4)c4ccsc4c3-c3c(F)cc(F)cc3OCCOC)sc2C1 [Compound 997] | – | A (percent of modification of PIK3CA protein ≥75%)
20 | – | – | < 0.1 | C=CC(=O)N1CCn2nc(-c3nc(-c4ccc5c(c4)CCNC5)c4ccsc4c3-c3ccc(F)cc3OCCOC)cc2C1 [Compound 115, 1-[2-[7-[4-fluoro-2-(2-methoxyethoxy)phenyl]-4-(1,2,3,4-tetrahydroisoquinolin-6-yl)thieno[3,2-c]pyridin-6-yl]-6,7-dihydro-4H-pyrazolo[1,5-a]pyrazin-5-yl]prop-2-en-1-one] | A (percent of modification of PIK3CA protein ≥75%) | –
21 | < 0.1 | – | – | C=CC(=O)N1CCn2nc(-c3nc(N4CCN(C(C)C)CC4)c4ccsc4c3-c3ccc(F)cc3OC(C)C)cc2C1 [Compound 208] | A (percent of modification of PIK3CA protein ≥75%) | –
22 | – | < 0.1 | – | C=CC(=O)N1CCc2ccc(-c3nc(-c4ccc5c(c4)C(=O)NC5)c4ccsc4c3-c3c(F)cc(F)cc3OCCOC)cc2C1 [Compound 1107] | – | A (percent of modification of PIK3CA protein ≥75%)
23 | – | – | < 0.1 | C=CC(=O)N1CCn2nc(-c3nc(-c4ccc5c(c4)CCNC5=O)c4ccsc4c3-c3ccc(F)cc3OCCOC)cc2C1 [Compound 189, 6-[7-[4-fluoro-2-(2-methoxyethoxy)phenyl]-6-(5-prop-2-enoyl-6,7-dihydro-4H-pyrazolo[1,5-a]pyrazin-2-yl)thieno[3,2-c]pyridin-4-yl]-3,4-dihydro-2H-isoquinolin-1-one] | A (percent of modification of PIK3CA protein ≥75%) | –
24 | < 0.1 | – | – | C=CC(=O)N1CC[C@@H](n2cc(-c3nc(-c4ccn(C)c(=O)c4)c4ccsc4c3-c3c(F)cc(F)cc3OC(C)C)cn2)C1 [Compound 386] | A (percent of modification of PIK3CA protein ≥75%) | –
25 | < 0.1 | – | – | C=CC(=O)N1CCn2nc(-c3nc(-c4ccc5c(c4)CN(C)C(=O)C5)c4ccsc4c3-c3c(F)cc(F)cc3OCCOC)cc2C1C (centres unmarked) [Compound 983] | – | A (percent of modification of PIK3CA protein ≥75%)
26 | < 0.1 | – | – | C=CC(=O)N1CCc2ncc(-c3nc(-c4cnc5c(c4)CN(C)CC5)c4ccsc4c3-c3c(F)cc(F)cc3OCCOC)cc2C1 [Compound 378] | A (percent of modification of PIK3CA protein ≥75%) | –
27 | – | < 0.1 | – | C=CC(=O)N1CCn2nc(-c3nc(-c4ccc(C5CN(C)C5)cc4)c4ccsc4c3-c3c(F)cc(F)cc3OCCOC)cc2C1C (centres unmarked) [Compound 1057] | – | A (percent of modification of PIK3CA protein ≥75%)
28 | < 0.1 | – | – | C=CC(=O)N1CCn2nc(-c3nc(-c4cnc5c(c4)CN(C)CC5)c4ccsc4c3-c3ccc(F)cc3OCCOC)cc2C1 [Compound 253] | A (percent of modification of PIK3CA protein ≥75%) | –
29 | 0.1 to 1 | – | – | C=CC(=O)N1CCn2nc(-c3nc(-c4ccc5cnncc5c4)c4ccsc4c3-c3c(F)cc(F)cc3OCCO)cc2C1C (centres unmarked) [Compound 660] | C (25%≤percent of modification <50%) | –
30 | < 0.1 | – | – | C=CC(=O)N1C[C@H](C)n2nc(-c3nc(-c4cnn(C)c4)c4ccsc4c3-c3c(F)cc(F)cc3OCCOC)cc2[C@@H]1C [Compound 607] | A (percent of modification of PIK3CA protein ≥75%) | –
31 | – | 0.1 to 1 | – | C=CC(=O)N1CCc2ccc(-c3nc(-c4cccc(OCCN(C)C)c4)c4ccsc4c3-c3c(F)cc(F)cc3OCCOC)cc2C1 [Compound 1184] | – | A (percent of modification of PIK3CA protein ≥75%)
32 | – | < 0.1 | – | C=CC(=O)N1CCn2nc(-c3nc(-c4cnc5c(c4)CN(C(C)C)CC5)c4ccsc4c3-c3c(F)cc(F)cc3OC)cc2[C@H]1C (single isomer, unassigned) [Compound 1148] | – | A (percent of modification of PIK3CA protein ≥75%)
33 | < 0.1 | – | – | C=CC(=O)N1CC(n2cc(-c3nc(-c4cnn(CC(N)=O)c4)c4ccsc4c3-c3ccc(F)cc3OCCOC)cn2)C1 [Compound 239] | A (percent of modification of PIK3CA protein ≥75%) | –
34 | < 0.1 | – | – | C=CC(=O)N1CCn2nc(-c3nc(-c4cncc(Cl)c4)c4ccsc4c3-c3ccc(F)cc3OCCOC)cc2C1 [Compound 203] | A (percent of modification of PIK3CA protein ≥75%) | –
